These results are taken from patent publication US20050058695A1, “Norethindrone sustained release formulations and methods associated therewith” (Watson Pharmaccuticals, Inc., priority 2002, published 2005).

A short description of data set [1]: in situ conversion of norethindrone acetate to norethindrone in the transdermal formulation. Type of data set: physicochemical.
The conditions of data set [2]: cited from earlier work.

In the case of `C#C[C@]1(OC(C)=O)CC[C@H]2[C@@H]3CCC4=CC(=O)CC[C@@H]4[C@H]3CC[C@@]21C` [NEA, norethindrone acetate], the “conversion to norethindrone in situ in the transdermal formulation” value in data set [1] is listed as “does not convert to norethindrone in situ”. Besides, the “time at which maximum skin flux for NEA is attained” value in data set [2] (FIG. 3 of U.S. Pat. No. 5,980,932) was “only after the second day of administration”. Moreover, in data set [2] (FIGS. 1 and 2 of U.S. Patent Application Publication No. 2003/0152615, in h), the “time at which maximum NEA skin flux is obtained following administration” value is around 48.
